Experimental data taken from patent publication US20190151283A1, “NON-STEROIDAL SELECTIVE GLUCOCORTICOID RECEPTOR AGONISTIC MODULATORS (SEGRAMs) AND USES THEREOF” (ASSOCIATION POUR LA RECHERCHE À L'IGBMC (ARI), priority 2017, published 2019).

Tests used:
Format in all cases: in vivo, mouse
B6 male mice [1] = experiment: Bone formation after three-month treatment (micro-CT, WNT16 transcripts); details: s.c. 1 mg/kg daily, three months
Protocol: B6 male mice (8-week-old) were daily subjected for three months to either a subcutaneous injection of vehicle (NaCl 0.9%), Dex, CpdX, CpdX(eA), CpdX(eB), CpdX-D3, CpdX-D3(eA) or CpdX-D3(eB) (1 mg/kg body weight, diluted in NaCl 0.9%).
From each animal included in the experiments, one femur and the ipsilateral tibia were dissected and preserved in 70% ethanol for further bone microstructure analysis by micro-CT. The FX Quantum micro-CT scanner (Perkin Elmer) was used to perform measurements at the distal femur and midshaft tibia. All scans were performed with an isotropic voxel size of 10 μm, 160 μA tube current and 90 kV tube voltage.
Morphological 3D measurements were performed using the CTAn software (Bruker). Cortical bone parameters, which were measured in the tibia midshaft, included measures of the bone volume fraction as compared to the total volume, cortical thickness, total area, bone area and marrow area. The region of interest was selected from below the distal tibial crest and continued for 20 slices toward the proximal end of the tibia. Trabecular bone parameters were measured in the distal metaphysis of the femurs and included bone volume fraction, trabecular thickness, trabecular number and trabecular spacing. The region of interest was selected from below the distal growth plate where the epiphyseal cap structure completely disappeared and continued for 100 slices toward the proximal end of the femur.
The statistical significance as compared to vehicle treatment was calculated through one-way ANOVA test followed by Dunn's multiple comparison test, *p<0.05; **p<0.01; ***p<0.001; ****p<0.0001.

B6 male mice [2] = experiment: Corticosterone synthesis and adrenal gland after three-month treatment; details: for plasmatic corticosterone level: at 10 a.m., compared to control mice (Vehicle); for cortex layers, most notably the fasciculata zone, of the adrenal glands / glomerulosa zone of the adrenal cortex / transcripts of Cyp11a, Cyp11b1 and HSD3β genes in adrenal glands: three months; for cortex layers, most notably the fasciculata zone, of the adrenal glands / glomerulosa zone of the adrenal cortex: histology; for glomerulosa zone of the adrenal cortex: 'but not' = not decreased; for transcripts of Cyp11a, Cyp11b1 and HSD3β genes in adrenal glands: q-RT-PCR
Protocol: B6 male mice (8-week-old) were daily subjected for three months to either a subcutaneous injection of vehicle (NaCl 0.9%), Dex, CpdX, CpdX(eA), CpdX(eB), CpdX-D3, CpdX-D3(eA) or CpdX-D3(eB) (1 mg/kg body weight, diluted in vehicle).
Following this long-term treatment, blood was collected at 10 a.m. and 6 p.m. by retro-orbital puncture in lithium-heparin coated vials, and the plasmatic level of corticosterone was determined. Adrenal glands were harvested and weighted. RNA transcripts were extracted and transcripts of the Cyp11a, Cyp11b1, Cyp11b2 and HSD3β genes were analyzed by q-RT-PCR. Histological analyses of the adrenal glands were also carried out.

Balb/C mice [3] = experiment: Ovalbumin (OVA)-induced allergic conjunctivitis; details: 0.1% instillation D22 to D24, 20 minutes after the last OVA challenge
Protocol: To investigate the anti-inflammatory effect of CpdX or CpdX-D3 on an allergic conjunctivitis, Balb/C mice were intraperitoneally sensitized with 50 μg OVA with alum on both days D1 and D8, and then challenged from D15 to D21 with 250 μg OVA in 5 μL of sterilized vehicle (0.9% NaCl), which were directly instilled onto the conjunctival sac. From D22 to D24, mice were divided into several groups, and received instillations with either OVA alone, OVA together with 0.1% of either Dex, CpdX, CpdX(eA), CpdX(eB), CpdX-D3, CpdX-D3(eA) or CpdX-D3(eB).
The clinical appearance of mouse eyes was evaluated 20 minutes after the last instillation on D24. Clinical signs (conjunctival hyperemia, lid edema and tearing) were scored to evaluate the occurrence and severity of conjunctivitis as described by Gimenes et al. (2015. Experimental Eye Research 134:24-32). Parameters were graded on a scale ranging from 0 to 3, (0=absence, 1=mild, 2=moderate, and 3=severe symptoms), each animal receiving a total clinical score ranging from 0 to 9. The data were expressed as mean±SEM with at least four mice per treatment.

Balb/C mice [4] = experiment: Dextran sodium sulfate (DSS)-induced ulcerative colitis; details: for pro-inflammatory genes overexpressed in DSS-induced ulcerative colitis (IL-1β, IL-6, IL-17a, IL-17f, TSLP, MMP13): colon, q-RT-PCR, D14; for colonic villus/crypt structure / mucosal and submucosal cell infiltration: i.p. 1 mg/kg on D11, D12, D13, H&E histology
Protocol: To investigate the anti-inflammatory activity of CpdX and CpdX-D3 on a Th17 ulcerative colitis, Balb/C mice were treated with 3% DSS in drinking water for 13 days, with or without an intraperitoneal administration of either Dex, CpdX, CpdX(eA), CpdX(eB), CpdX-D3, CpdX-D3(eA) or CpdX-D3(eB) (1 mg/kg of body weight) on D11, D12 and D13.
At D14, RNA transcripts were extracted from mouse colons. IL-1β, IL-6, IL-17a, IL-17f, TSLP and MMP13 transcripts were analyzed by q-RT-PCR. Colon samples were also harvested for histological analyses (with H&E staining).

B6 male mice [5] = experiment: Insulin level, insulin tolerance test and liver insulin signalling after three-month treatment; details: for insulin resistance: three months, conclusion; for phosphorylated insulin receptor substrate 1 (p-IRS1 S318) in liver extracts: western-blot, 'but not' = no decrease
Protocol: B6 male mice (8-week-old) were subjected daily for three months to a subcutaneous injection of either vehicle (NaCl 0.9%), Dex, CpdX, CpdX(eA), CpdX(eB), CpdX-D3, CpdX-D3(eA) or CpdX-D3(eB) (1 mg/kg body weight, diluted in vehicle). After three months, the blood was collected at 10 a.m. by retro-orbital puncture in lithium-heparin coated vials, and the plasmatic level of insulin was determined.
For the intraperitoneal insulin tolerance test (IPITT), mice were fasted for 6 hours before test. The blood glucose concentration was measured both before (T0) and during a one-hour period after insulin i.p. injection (0.75 U/kg body weight).
Following this three-month treatment, liver samples were harvested and lysed in the RIPA buffer (20 mM Tris pH 8, 150 mM NaCl, 10% glycerol, 1% NP-40 and 2 mM EDTA). Antibodies from Cell Signaling were used to assess by Western-Blotting the relative level of p-IRS1 (S318), IRS-1, p-AKT (S473) and AKT.

Balb/C mice [6] = experiment: Skin atrophy after 8-day topical treatment of dorsal skin; details: for epidermal thickness / skin atrophy, histological analysis: eight-day topical treatment; for epidermal thickness: morphometric analysis; for skin atrophy, histological analysis: 'in marked contrast' = no severe atrophy as with Dex; for transcription of the REDD1 gene in dorsal skin: topical 8 days, 1 nmole/cm^2, 'but not' = not increased
From the text: To investigate whether, similarly to Dex, a topical administration of CpdX could result in a skin atrophy, Balb/C mice were shaved on the dorsal skin. Ethanol (vehicle), Dex, CpdX or either one of its two enantiomers CpdX(eA) or CpdX(eB), as well as the deuterated form CpdX-D3 or either one of its two enantiomers CpdX-D3(eA) or CpdX-D3(eB), were topically applied onto the dorsal skin for 8 days.
Upon completion of the treatments, RNA transcripts were extracted from dorsal skin samples and the transcripts of Kindlin-1 and REDD1 genes were analyzed by q-RT-PCR. Histological and morphometric analyses of the dorsal skin were also performed.

Row | SMILES | bone formation in cortical and trabecular bones (B6 male mice [1]) | plasmatic corticosterone level (B6 male mice [2]) | cortex layers, most notably the fasciculata zone, of the adrenal glands (B6 male mice [2]) | glomerulosa zone of the adrenal cortex (B6 male mice [2]) | transcripts of Cyp11a, Cyp11b1 and HSD3β genes in adrenal glands (B6 male mice [2]) | clinical signs of allergic conjunctivitis (conjunctival hyperemia, lid edema and tearing) (Balb/C mice [3]) | pro-inflammatory genes overexpressed in DSS-induced ulcerative colitis (IL-1β, IL-6, IL-17a, IL-17f, TSLP, MMP13) (Balb/C mice [4]) | colonic villus/crypt structure (Balb/C mice [4]) | mucosal and submucosal cell infiltration (Balb/C mice [4]) | insulin resistance (B6 male mice [5]) | phosphorylated insulin receptor substrate 1 (p-IRS1 S318) in liver extracts (B6 male mice [5]) | epidermal thickness (Balb/C mice [6]) | skin atrophy, histological analysis (Balb/C mice [6]) | transcription of the REDD1 gene in dorsal skin (Balb/C mice [6])
1 | COc1ccc(F)cc1C(C)(C)CC(O)(CNc1ccc2c(c1)COC2=O)C(F)(F)F (racemic) [CpdX, 5-[4-(5-fluoro-2-methoxyphenyl)-2-hydroxy-4-methyl-2-(trifluoromethyl)pentylamino]-isobenzofuran-1(3H)-one] | did not affect | much higher | markedly increased | but not | increased | considerably reduced | similarly repressed | almost reestablished | significantly decreased | does not induce | but not | not significantly decreased | in marked contrast | but not
2 | [2H]C([2H])([2H])Oc1ccc(F)cc1C(C)(C)CC(O)(CNc1ccc2c(c1)COC2=O)C(F)(F)F (racemic) [CpdX-D3, 5-{4-[2-(methoxy-D3)-5-fluorophenyl]-2-hydroxy-4-methyl-2-(trifluoro-methyl)pentylamino}isobenzofuran-1(3H)-one] | did not affect | much higher | markedly increased | but not | increased | considerably reduced | similarly repressed | almost reestablished | significantly decreased | does not induce | but not | not significantly decreased | in marked contrast | but not
3 | COc1ccc(F)cc1C(C)(C)CC(O)(CNc1ccc2c(c1)COC2=O)C(F)(F)F (single isomer, unassigned) [CpdX(eA), 5-[4-(5-fluoro-2-methoxyphenyl)-2-hydroxy-4-methyl-2-(trifluoromethyl)pentylamino]-isobenzofuran-1(3H)-one] | did not affect | much higher | markedly increased | but not | increased | considerably reduced | similarly repressed | almost reestablished | significantly decreased | does not induce | – | not significantly decreased | – | but not
4 | COc1ccc(F)cc1C(C)(C)CC(O)(CNc1ccc2c(c1)COC2=O)C(F)(F)F (single isomer, unassigned) [CpdX(eB), 5-[4-(5-fluoro-2-methoxyphenyl)-2-hydroxy-4-methyl-2-(trifluoromethyl)pentylamino]-isobenzofuran-1(3H)-one] | did not affect | much higher | markedly increased | but not | increased | considerably reduced | similarly repressed | almost reestablished | significantly decreased | does not induce | – | not significantly decreased | – | but not
5 | [2H]C([2H])([2H])Oc1ccc(F)cc1C(C)(C)CC(O)(CNc1ccc2c(c1)COC2=O)C(F)(F)F (stereo not shown) [CpdX-D3(eA), 5-{4-[2-(methoxy-D3)-5-fluorophenyl]-2-hydroxy-4-methyl-2-(trifluoromethyl)pentylamino}isobenzofuran-1(3H)-one] | did not affect | much higher | markedly increased | but not | increased | considerably reduced | similarly repressed | almost reestablished | significantly decreased | does not induce | – | not significantly decreased | – | but not
